ChEMBL document CHEMBL4311949, “Design, Synthesis, Evaluation, and Structural Studies of C2-Symmetric Small Molecule Inhibitors of Programmed Cell Death-1/Programmed Death-Ligand 1 Protein-Protein Interaction” (J Med Chem, 2019)
Active and inactive are the calls of the source. The rule behind the calls is not given here.

How the values were obtained:
[1] = (§1) Toxicity weighted activity index, ratio of GI50 for Cytotoxicity against human Jurkat T cell expressing human PD1 co-cultured with CHOK1 cells stably expressing human PDL1 to EC50 for inhibition of human PD1 stably expressed in human Jurkat T cells co-expressing NFAT-induced luciferase/human PDL1 stably expressed in CHOK1 cells co-expressing aAPC protein-protein interaction; type: cell-based; settings: read-out: Ratio GI50/EC50
[2] = molecular target: Programmed cell death 1 ligand 1 (Homo sapiens) (UniProt Q9NZQ7); test: Binding affinity to 15N-labelled human PDL1 assessed as induction of protein oligomerization by 1H-15N HMQC spectra analysis
Sequence of Programmed cell death 1 ligand 1 (Homo sapiens) (Q9NZQ7 whole entry, the tested form may be a part): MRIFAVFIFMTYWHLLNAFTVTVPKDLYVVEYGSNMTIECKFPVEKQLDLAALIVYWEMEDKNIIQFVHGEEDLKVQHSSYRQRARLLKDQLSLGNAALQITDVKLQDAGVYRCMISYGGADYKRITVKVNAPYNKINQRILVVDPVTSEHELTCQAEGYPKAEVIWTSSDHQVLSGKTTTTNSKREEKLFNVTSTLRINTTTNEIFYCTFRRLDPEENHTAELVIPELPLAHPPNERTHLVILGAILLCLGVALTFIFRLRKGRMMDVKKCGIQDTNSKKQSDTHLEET

[3] = Cytotoxicity against CHOK1 cells stably expressing human PDL1 co-cultured with human Jurkat T cell expressing human PD1 assessed as growth inhibition measured after 24 hrs by XTT assay; type: cell-based, Cricetulus griseus, CHO-K1; settings: chinese hamster
[4] = as §1, with “cytotoxicity” for “Cytotoxicity”, “against CHOK1 cells stably expressing human PDL1 co-cultured with” for “against”, “PD1” for “PD1 co-cultured with CHOK1 cells stably expressing human PDL1”; type: cell-based; settings: chinese hamster; read-out: Ratio GI50/EC50
[5] = Toxicity weighted activity index, ratio of GI50 for Cytotoxicity against human Jurkat T cell expressing human PD1 co-cultured with CHOK1 cells stably expressing human PDL1 to EC50 for inhibition of PD1/PDL1 interaction in human Jurkat cells co-cultured with human U2OS cells expressing PDL1; type: cell-based; settings: read-out: Ratio GI50/EC50
[6] = Cytotoxicity against human Jurkat T cell expressing human PD1 co-cultured with CHOK1 cells stably expressing human PDL1 measured after 24 hrs by XTT assay; type: cell-based; settings: read-out: MNCC
[7] = molecular target: Programmed cell death protein 1/Programmed cell death 1 ligand 1 (Homo sapiens) (UniProt Q15116+Q9NZQ7); test: (§2) Inhibition of PD1/PDL1 interaction in human Jurkat cells co-cultured with human U2OS cells expressing PDL1 assessed as reduction in SHP1 recruitment preincubated with U2OS cells for 60 mins followed by Jurkat cell addition and measured after 2 hrs by Pathhunter chemiluminescent assay; type: cell-based
[8] = molecular target: T1, Programmed cell death protein 1/Programmed cell death 1 ligand 1 (Homo sapiens, UniProt Q9NZQ7); test: as §2; type: cell-based
T1 sequence (Q15116 whole entry): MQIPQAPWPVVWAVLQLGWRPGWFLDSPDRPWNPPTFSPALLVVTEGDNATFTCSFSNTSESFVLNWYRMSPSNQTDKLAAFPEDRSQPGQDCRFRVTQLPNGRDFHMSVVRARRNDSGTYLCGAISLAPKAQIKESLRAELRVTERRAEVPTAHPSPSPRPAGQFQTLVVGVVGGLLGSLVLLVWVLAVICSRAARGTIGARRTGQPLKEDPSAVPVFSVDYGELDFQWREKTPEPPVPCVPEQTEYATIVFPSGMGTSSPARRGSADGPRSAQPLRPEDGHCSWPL
T1 sequence (Q9NZQ7 whole entry): as the sequence (Q9NZQ7 whole entry, the tested form may be a part) above

[9] = Toxicity weighted activity index, ratio of GI50 for cytotoxicity against CHOK1 cells stably expressing human PDL1 co-cultured with human Jurkat T cell expressing human PD1 to EC50 for inhibition of PD1/PDL1 interaction in human Jurkat cells co-cultured with human U2OS cells expressing PDL1; type: cell-based; settings: chinese hamster; read-out: Ratio GI50/EC50
[10] = molecular target: Programmed cell death 1 ligand 1 (Homo sapiens) (UniProt Q9NZQ7); test: Binding affinity to 15N-labelled human PDL1 assessed as induction of oligomerization by 1H-NMR spectra analysis
[11] = molecular target: T1, Programmed cell death protein 1/Programmed cell death 1 ligand 1; test: Inhibition of human Fc-tagged PD1 N-terminal domain (Leu25 to Gln167 residues) expressed in HEK293 cells/human His-tagged PDL1 (Phe19 to Arg238 residues) expressed in HEK293 cells protein-protein interaction after 1 hr by APC-labeled anti-His antibody/Eu-labeled anti-human IgG based HTRF assay; type: cell-based
[12] = Cytotoxicity against CHOK1 cells stably expressing human PDL1 co-cultured with human Jurkat T cell expressing human PD1 measured after 24 hrs by XTT assay; type: cell-based, Cricetulus griseus, CHO-K1; settings: chinese hamster; read-out: MNCC
[13] = Cytotoxicity against human Jurkat T cell expressing human PD1 co-cultured with CHOK1 cells stably expressing human PDL1 assessed as growth inhibition measured after 24 hrs by XTT assay; type: cell-based
[14] = molecular target: T1, Programmed cell death protein 1/Programmed cell death 1 ligand 1; test: Inhibition of human PD1 stably expressed in human Jurkat T cells co-expressing NFAT-induced luciferase/human PDL1 stably expressed in CHOK1 cells co-expressing aAPC protein-protein interaction assessed as increase in NFAT signaling measured after 6 hrs by bio-glo luciferase reporter gene assay; type: cell-based

Row | Structure (SMILES) | Activity [2] | GI50 at 24 h [3] [µM] | MNTC at 24 h [6] [nM] | Activity [10] | IC50 [11] [µM] | MNTC at 24 h [12] [nM] | GI50 at 24 h [13] [µM] | also measured
1 | COc1nc(OCc2cccc(-c3cccc(COc4ccc(CNCCNC(C)=O)c(OC)n4)c3C)c2C)ccc1CNCCNC(C)=O | Active | 3.1 | 2560 | Active | 0.025 | 2560 | 3.1 | selectivity ratio [1]: 0.7; selectivity ratio [4]: 0.7; selectivity ratio [5]: 9.3; inhibition [7]: Dose-dependent effect; EC50 [8]: 0.334 µM; selectivity ratio [9]: 9.3; EC50 [14]: 4.21 µM
2 | CC(=O)NCCNCc1cc(C)c(OCc2cccc(-c3cccc(COc4cc(OCc5cncc(C#N)c5)c(CNCCNC(C)=O)cc4C)c3C)c2C)cc1OCc1cncc(C#N)c1 | Active | 11.8 | 2560 | Active |  | 2560 | 11.8 | inhibition [7]: Dose-dependent effect
3 | CC(=O)NCCNCc1ccc(OCc2ccc(COc3ccc(CNCCNC(C)=O)c(OCc4cncc(C#N)c4)c3)cc2)cc1OCc1cncc(C#N)c1 |  |  |  |  | 8.24 |  |  | 
4 | CCNCc1cc(C)c(OCc2cccc(-c3cccc(COc4cc(OCc5cncc(C#N)c5)c(CNCC)cc4C)c3C)c2C)cc1OCc1cncc(C#N)c1 |  |  |  |  | 0.0038 |  |  | 
5 | CC(=O)NCCNCc1cc(C)c(OCc2cccc(-c3ccccc3)c2C)cc1OCc1cncc(C#N)c1 | Active | 8.1 | 2560 | Active | 0.0025 | 2560 | 8.1 | selectivity ratio [1]: 2.7; selectivity ratio [4]: 2.7; selectivity ratio [5]: 37; EC50 [8]: 0.219 µM; selectivity ratio [9]: 37; EC50 [14]: 3 µM
6 | CC(=O)NCCNCc1ccc(OCc2ccc(COc3ccc(CNCCNC(C)=O)c(OCc4cncc(C#N)c4)c3)c3ccccc23)cc1OCc1cncc(C#N)c1 |  |  |  |  | 0.462 |  |  | 
7 | CCNCc1cc(C)c(OCc2cccc(-c3ccccc3)c2C)cc1OCc1cncc(C#N)c1 |  |  |  |  | 0.0022 |  |  | 
8 | COc1nc(OCc2cccc(-c3ccccc3)c2C)ccc1CNCCNC(C)=O |  | 4.5 | 2560 |  |  | 2560 | 4.5 | 
9 | CC(=O)NCCNCc1ccc(OCc2ccc3cc(COc4ccc(CNCCNC(C)=O)c(OCc5cncc(C#N)c5)c4)ccc3c2)cc1OCc1cncc(C#N)c1 |  |  |  |  | 1.17 |  |  | 
10 | CC(=O)NCCNCc1ccc(OCc2cccc(COc3ccc(CNCCNC(C)=O)c(OCc4cncc(C#N)c4)c3)c2)cc1OCc1cncc(C#N)c1 |  |  |  |  | > 10 |  |  | 
